Assay results taken from patent US12366579B2, “Sulfur-heterocycle exchange chemistry and uses thereof” (University of Virginia Patent Foundation, priority 2019, dated 2025).
“Also recorded” adds a separate entry of the source.

Key:
[1] = HPLC assay for solution reactivity of sulfonyl triazole fragments with p-cresol; type: physicochemical; settings: HPLC assay, TMG base
Experimental: HPLC Assay for Profiling Solution Reactivity and Stability of Sulfonyl Triazole Fragments
The following reagents were prepared and stored on ice prior to use. 0.1 M solution of caffeine in acetonitrile, 1.0 M solution of n-butylamine, p-cresol, tetramethylguanidine […], 1 M HOAc in ACN and 10 mM solution of SuTEx fragment in DMF-ACN mixture (10:90, v/v). 500 μL of fragment solution was transferred to a dram vial on ice. To the mixture, 5.5 μL of TMG and 5.5 μL of p-cresol or n-butylamine was added and solutions were stirred on ice for 6 h. To monitor reactivity, 50 μL aliquots were removed at indicated time points and quenched with 10 μL of a 1:1 mixture of caffeine and HOAc. Samples were injected (1 μL) and analyzed by reverse-phase HPLC on a Shimadzu 1100 Series spectrometer (Shimadzu, Kyoto, Japan) with UV detection at 254 nm. Reaction progress was evaluated by monitoring consumption of starting material (SuTEx fragment) normalized to caffeine standard. Chromatographic separation was performed using a Phenomenex Kinetex C18 column (2.6 μm, 50×4.6 mm) (Phenomenex, Torrance, California, United States of America). Mobile phases A and B were composed of H2O+0.1% HOAc and ACN+0.1% HOAc, respectively. Samples were analyzed using the following analytical conditions: using a flow rate of 0.8 ml min^−1, the gradient was as follows: 0-0.5 min, 15% B; 0.5-6.5 min 85% B; 6.5-7 min 100% B: 7-8.5 min 100% B; 8.5-9 min 15% B; 9-9.8 min 15% B.

[2] = target: T1, recombinant GSTP1 lysates (Homo sapiens, UniProt P09211); experiment: GSTP1 biochemical substrate assay (GSH conjugation to BDNB)
T1 construct: FLAG (C); host or cells: HEK293T, transient transfection; soluble proteome used unpurified
T1 sequence (P09211 whole entry): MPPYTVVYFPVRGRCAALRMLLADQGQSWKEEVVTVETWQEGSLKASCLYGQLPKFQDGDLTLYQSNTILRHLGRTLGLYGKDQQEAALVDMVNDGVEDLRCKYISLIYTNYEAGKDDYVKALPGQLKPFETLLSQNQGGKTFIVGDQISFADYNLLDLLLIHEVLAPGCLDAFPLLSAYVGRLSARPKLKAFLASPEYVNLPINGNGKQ
Experimental: GSTP1 Biochemical Substrate Assay
Recombinant GSTP1-HEK293T soluble cell proteomes were diluted to 1 mg ml^−1 in assay buffer (100 mM NaH2PO4, pH 7.0). Samples were treated with inhibitor at indicated concentrations for 30 min at 37° C. GSH stock solution (250 mM in water) was diluted to 4 mM in assay buffer and 25 μl of diluted GSH solution was added to each sample. A substrate stock solution of 75 mM 1-bromo-2,4-dinitrobenzene […] in ethanol was diluted to 2 mM in assay buffer. Samples (25 μl) were aliquoted into a 96-well plate and spun briefly via centrifuge. Next, 50 μl of 2 mM BDNB was added to each well and the reaction was monitored in kinetic mode by measuring absorbance at 340 nm for 10 min on a BMG Labtech CLARIOstar plate reader (BMG Labtech, Cary, North Carolina, United States of America).

PLD3 (Y437) = target: T2, PLD3 (Y437) (Homo sapiens, UniProt Q8IV08); experiment: Competitive chemical proteomics of SuTEx fragments vs HHS-482, PLD3 site; type: binding; settings: fragment 50 μM, 30 min, 37° C.
T2 construct: endogenous in cells; host or cells: DM93 melanoma cells, soluble proteome (lysate)
T2 sequence (Q8IV08 whole entry, the tested form may be a part): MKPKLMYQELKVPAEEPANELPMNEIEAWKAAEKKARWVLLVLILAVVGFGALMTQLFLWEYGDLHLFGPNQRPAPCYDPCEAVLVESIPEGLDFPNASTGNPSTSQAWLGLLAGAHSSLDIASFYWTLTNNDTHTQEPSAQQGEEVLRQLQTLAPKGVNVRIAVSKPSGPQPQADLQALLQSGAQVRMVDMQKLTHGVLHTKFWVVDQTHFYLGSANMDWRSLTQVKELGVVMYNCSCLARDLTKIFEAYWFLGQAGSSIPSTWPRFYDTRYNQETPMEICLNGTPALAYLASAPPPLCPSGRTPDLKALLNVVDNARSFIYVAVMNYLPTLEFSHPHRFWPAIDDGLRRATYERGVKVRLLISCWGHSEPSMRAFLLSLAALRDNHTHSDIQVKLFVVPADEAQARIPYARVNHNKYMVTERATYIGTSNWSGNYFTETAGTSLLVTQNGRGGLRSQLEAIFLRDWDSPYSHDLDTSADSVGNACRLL
Experimental: (§1) Heavy and light proteomes (432 μl of each) were diluted to 2.3 mg ml^−1 in PBS and sample aliquots (432 μl) were treated with SuTEx fragment at the indicated concentrations (5 μl, 100× stock in DMSO), mixed gently and incubated for 30 min at 37° C. Samples were then treated with HHS-482 (5 μL, 5 mM stock in DMSO) for 30 min at 37° C. Probe-modified proteomes were conjugated to desthiobiotin-PEG3-azide followed by enrichment of probe-modified peptides for nano-electrospray ionization-LC-MS/MS analyses as previously described^57.
The chemical proteomic method for functional tyrosine profiling^72 was tailored to investigate AG/LG effects on SuTEx fragment reactivity in complex proteomes. In brief, isotopically light and heavy soluble proteomes from DM93 melanoma cells cultured by stable isotopic labeling by amino acids in cell culture (SILAC^80) media were used for quantitative liquid chromatography-mass spectrometry (LC-MS) studies. […] Proteomes were digested with trypsin protease, HHS-482-modified peptides enriched by avidin chromatography and analyzed by high-resolution LC-MS/MS and bioinformatics as described hereinabove.
To evaluate substituent effects on proteome activity, reactivity profiles of each respective SuTEx fragment were compared across >1500 total distinct HHS-482-modified tyrosine sites from >650 detected proteins. […]

human GSTP1 (hGSTP1) = target: T3, human GSTP1 (hGSTP1) (Homo sapiens, UniProt P09211); experiment: Gel-based competitive chemical proteomic screen with HHS-482, recombinant hGSTP1-HEK293T soluble proteomes; type: binding; settings: fragment 50 μM, 30 min, 37° C.
T3 construct: FLAG (C); host or cells: HEK293T, transient transfection; soluble proteome used unpurified
T3 sequence (P09211 whole entry, the tested form may be a part): as the sequence (P09211 whole entry) above
Experimental: Gel-Based Chemical Proteomic Assay
Cell pellets were lysed in PBS and fractionated (100,000×g, 45 min, 4° C.) to generate soluble and membrane fractions. Protein concentrations were determined using Bio-Rad DC protein assay (Bio-Rad Laboratories, Inc., Hercules, California, United States of America), and adjusted to 1 mgml^−1 in PBS. Proteome samples (49 μl aliquots) were treated with DMSO vehicle or indicated concentration of SuTEx fragment (1 μL, 50× stock in DMSO) for 30 min at 37° C. Samples were then treated with HHS-482 probe (1 μL, 2.5 mM stock in DMSO) for 30 min at 37° C. Probe labeled samples were conjugated to rhodamine-azide (1 μL, 1.25 mM stock; final concentration of 25 μM) by copper-catalyzed azide-alkyne cycloadditions (CuAAC) for 1 h at room temperature followed by SDS-PAGE and in-gel fluorescence scanning as previously described^57.

GSTP1 Y8 = target: T4, GSTP1 Y8 (Homo sapiens, UniProt P09211); experiment: Quantitative chemical proteomics of live SILAC DM93 cells treated with SuTEx fragments; type: cell-based
T4 construct: endogenous in cells; host or cells: DM93 melanoma cells (SILAC)
T4 sequence (P09211 whole entry, the tested form may be a part): as the sequence (P09211 whole entry) above
Experimental: Live Cell Evaluation of Sulfonyl-Triazole Fragments
Cells grown to ˜90% confluency in 10 cm plates were treated with DMSO vehicle or SuTEx fragment (10 μl of 1,000× stock) in serum-free media for the indicated concentrations and times at 37° C. with 5% CO2. After treatment, cells were washed with cold PBS twice before collection and preparation for gel-based chemical proteomic evaluation as described above. For LC-MS studies, protein concentrations were normalized to 2.3 mg ml^−1 and 432 μl (for 1 mg final protein amount) were used for sample preparation as detailed below.
as §1
Next, SILAC DM93 cells were treated with JWB152 or JWB198 to determine whether these SuTEx fragments could ligand Y8 of endogenous GSTP1 in living systems (50 μM compound, 1.5 hr, 37° C.). Cells were pretreated with DMSO vehicle or SuTEx fragments followed by cells lysis, HHS-482 labeling of proteomes, and quantitative chemical proteomics.

DM93 soluble proteomes = experiment: Proteome-wide competitive chemical proteomics of SuTEx fragments vs HHS-482; type: binding, human; settings: fragment 50 μM, 30 min, 37° C.
Experimental: as §1
The chemical proteomic method for functional tyrosine profiling^72 was tailored to investigate AG/LG effects on SuTEx fragment reactivity in complex proteomes. In brief, isotopically light and heavy soluble proteomes from DM93 melanoma cells cultured by stable isotopic labeling by amino acids in cell culture (SILAC^80) media were used for quantitative liquid chromatography-mass spectrometry (LC-MS) studies. Light and heavy DM93 proteomes were treated with dimethyl sulfoxide (DMSO) vehicle or SuTEx fragment (50 μM, 30 min, 37° C.), respectively, followed by labeling with the tyrosine-reactive probe HHS-482 described hereinabove (50 μM, 30 min, 37° C.) and copper-catalyzed azide-alkyne cycloaddition (CuAAC) conjugation of a desthiobiotin-azide enrichment tag. Proteomes were digested with trypsin protease, HHS-482-modified peptides enriched by avidin chromatography and analyzed by high-resolution LC-MS/MS and bioinformatics as described hereinabove.
To evaluate substituent effects on proteome activity, reactivity profiles of each respective SuTEx fragment were compared across >1500 total distinct HHS-482-modified tyrosine sites from >650 detected proteins. Fragments were screened across independent biological replicates (n=2-3) and high-quality tyrosine site annotations were identified by detection in at least a single biological replicate from each fragment dataset, probe-specific enrichment (HHS-482 probe/DMSO SILAC ratio (SR)>5), and quality control confidence criteria of ≥300 Byonic score^31, […] protein false discovery rate (FDR), and ≤5 ppm mass accuracy in order to minimize the potential for false positives^72. SILAC ratios (SR) from competitive studies (Light-DMSO/Heavy-fragment) were used to identify fragment-competed tyrosine residues as sites showing >75% reduction in enrichment by HHS-482 compared with DMSO vehicle control (i.e. liganded tyrosines, SR>4). In total, 305 liganded tyrosines on 213 distinct proteins were identified, corresponding to ˜30% and ˜44% of total quantified tyrosines and proteins, respectively. […]

Compound | solution reactivity with p-cresol [1] | inhibitory activity against GSTP1 ([2]; negative control probes, highest concentration tested 100 μM) | SILAC ratio (SR) at tyrosine competed site PLD3 Y437 (PLD3 (Y437)) | block of HHS-482 labeling of GSTP1 (human GSTP1 (hGSTP1)) | blockade of HHS-482 labeling of native GSTP1 Y8 in live cells (GSTP1 Y8; 50 μM compound, 1.5 hr, 37° C.) [%] | SILAC ratio (SR) at other GSTP1 probe-modified sites (GSTP1 Y8; Y50, Y64, Y80, Y119, and Y199, 50 μM) | IC50 ([2]; inhibitor 30 min at 37° C., n=3, read-out: IC50, in vitro potency against GSTP1 by GSH substrate assay) [µM] | liganded tyrosine frequency (SR>4) (DM93 soluble proteomes) [%]
O=S(=O)(C1CC1)n1cnc(-c2ccc(C(F)(F)F)cc2)n1 [JWB146, 1-(Cyclopropylsulfonyl)-3-(4-(trifluoromethyl)phenyl)-1H-1,2,4-triazole] | largely unreactive | lack of activity; also recorded: did not show inhibitory activity | > 6 |  |  |  |  | 
O=S(=O)(c1ccc2ccccc2c1)n1cnc(-c2ccncc2)n1 [JWB198, 4-(1-(Naphthalen-2-ylsulfonyl)-1H-1,2,4-triazol-3-yl)pyridine] |  |  |  | block HHS-482 labeling to levels comparable with Y8F mutant | ~70 | ~1 | 16 | 1.3
